Test system: MDA-MB-468 spheroids with HUVEC/MSC, viability
Assay: Anticancer human tumor MDA-MB-468 cell line growth inhibition [PI3K];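 note: spheroids exposed to agents for seven days before readout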
Conditions: for IC50: curve of first compound; for viability, T/C: stronger effect = lower value; active = viability on the fitted dose curve at most 10% of control; inactive = the rest
Excerpt: Combinatorial screen of targeted agents with the PI3K inhibitors inavolisib, alpelisib, duvelisib, and copanlisib in multi-cell type tumor spheroids
A high-throughput screen of multi-cell type tumor spheroids was designed to identify active combinations of targeted small molecules and PI3K pathway inhibitors. Complex spheroids include a stromal component modeled by human endothelial cells (HUVEC) and fibroblasts modeled by human mesenchymal stem cells (MSCs). The concentration ranges selected for each drug and investigational agent were based upon clinically achievable concentrations if the clinical Cmax of the agent was known.
Compounds. The drugs and investigational agents: inavolisib (NSC800729), alpelisib (NSC765974), duvelisib (NSC772469), copanlisib (NSC816437), ipatasertib (NSC767898), afuresertib (NSC778305), talazoparib (NSC767125), sapanisertib (NSC764658), selumetinib (NSC741078), tovorafenib (DAY101, NSC766906), vemurafenib (NSC761431), ravoxertinib (NSC781343), sotorasib (NSC818433), MRTX1133 (NSC 836407), abemaciclib (NSC 768073), palbociclib (NSC758247), venetoclax (NSC 766270), SY5609 (NSC837396), enzalutamide (NSC755605), and darolutamide (NSC825331), were obtained from the National Cancer Institute (NCI) Developmental Therapeutics Program Chemical Repository. The FDA-approved anticancer drug set is available from the NCI Developmental Therapeutics Program. […] The stock solutions were prepared in dimethyl sulfoxide (DMSO, Sigma-Aldrich, St. Louis, MO, cat. D2650) at 800-fold the tested concentration and stored at -70 degrees C prior to their use. All drugs and investigational agents were tested over a range starting from a high concentration at or near the clinical Cmax and decreasing in half-log increments. If the clinical Cmax for an agent had not been determined, the highest concentration tested was 10 microM.
Cell Culture. All cells were maintained in an incubator at 37 degrees C and 5% CO2 with 95% humidity. The PDC lines were cultured according to standard operating procedures established by the NCI PDMR (https://pdmr.cancer.gov/sops/default.htm). All PDCs were thawed and cultured in Matrigel-coated flasks prepared with a working solution of 1X Ham's F-12 nutrient mix, without supplementation (Invitrogen, Waltham, MA, cat. 11765054), 100 U/mL penicillin-streptomycin (Invitrogen, cat. 15140122), and 2.5% Matrigel (Corning Inc., Corning, NY, cat. 354248) for the first three passages. The 354836-022-R-J1-PDC, 475296-252-R-J1-PDC, and 997726-040-R-J2-PDC lines were cultured in 6A media, which includes advanced DMEM/F-12 (Thermo Fisher Scientific, cat. 12634028), 10 mM HEPES (Thermo Fisher Scientific, cat. 15630080), 1X GlutaMAX supplement (Thermo Fisher Scientific, cat. 35050061), 0.1 mg/mL primocin (InvivoGen, San Diego, CA, cat. ant-pm-2), 10% defined fetal bovine serum, heat inactivated (HyClone Laboratories Inc., Logan, UT, cat. SH30070.03HI), 50% L-WRN conditioned media (ATCC, cat. CRL-3276), 1.25 mM N-Acetyl-L-cysteine (Sigma-Aldrich, cat. A9165), 10 mM nicotinamide (Sigma-Aldrich, cat. N0636), 1X B-27 supplement (Thermo Fisher Scientific, cat. 17504044), 1X N-2 supplement (Thermo Fisher Scientific, cat. 17502048), and 10 microM Y-27632 dihydrochloride (Tocris Bioscience, Bristol, United Kingdom, cat. 1254). The 624824-186-R-J2-PDC line was cultured in 6C/Colon 1B media, which includes all 6A media components plus 50 ng/mL human EGF recombinant protein (Thermo Fisher Scientific, cat. PHG0311). […]

[1] = second compound 0.00316 µM, first compound 0.0316 µM
[2] = second compound 0.00316 µM, first compound 0.1 µM
[3] = second compound 0.01 µM, first compound 0.0316 µM
[4] = second compound 0.01 µM, first compound 0.1 µM
[5] = second compound 0.0316 µM, first compound 0.0316 µM
[6] = second compound 0.0316 µM, first compound 0.1 µM
[7] = second compound 0.1 µM, first compound 0.0316 µM
[8] = second compound 0.1 µM, first compound 0.1 µM
[9] = second compound 0.316 µM, first compound 0.0316 µM
[10] = second compound 0.316 µM, first compound 0.1 µM
[11] = second compound 1 µM, first compound 0.0316 µM
[12] = second compound 1 µM, first compound 0.1 µM

CC(C)n1nc(-c2ccc3oc(N)nc3c2)c2c(N)ncnc21 + CC(Nc1ccc2c(c1)OCCn1cc(N3C(=O)OCC3C(F)F)nc1-2)C(N)=O
48.5 nM: IC50 (second compound 0.00316 µM)
38.5 nM: IC50 (second compound 0.0316 µM)
31.2 nM: IC50 (second compound 0.316 µM)
23 nM: IC50 (second compound 1 µM)
inactive: viability, T/C (second compound 0.00316 µM, first compound 0.000316 µM) 89.9% | viability, T/C (second compound 0.00316 µM, first compound 0.001 µM) 100% | viability, T/C (second compound 0.00316 µM, first compound 0.00316 µM) 91.8% | viability, T/C (second compound 0.00316 µM, first compound 0.01 µM) 92.6% | viability, T/C [1] 69.5% | viability, T/C [2] 16.7% | viability, T/C (second compound 0.01 µM, first compound 0.000316 µM) 95.1% | viability, T/C (second compound 0.01 µM, first compound 0.001 µM) 96.8% | viability, T/C (second compound 0.01 µM, first compound 0.00316 µM) 88% | viability, T/C (second compound 0.01 µM, first compound 0.01 µM) 99% | viability, T/C [3] 59.2% | viability, T/C [4] 21.1% | viability, T/C (second compound 0.0316 µM, first compound 0.000316 µM) 100% | viability, T/C (second compound 0.0316 µM, first compound 0.001 µM) 94.8% | viability, T/C (second compound 0.0316 µM, first compound 0.00316 µM) 77.4% | viability, T/C (second compound 0.0316 µM, first compound 0.01 µM) 83% | viability, T/C [5] 58.5% | viability, T/C [6] 15% | viability, T/C (second compound 0.1 µM, first compound 0.000316 µM) 103% | viability, T/C (second compound 0.1 µM, first compound 0.001 µM) 82.4% | viability, T/C (second compound 0.1 µM, first compound 0.00316 µM) 87.8% | viability, T/C (second compound 0.1 µM, first compound 0.01 µM) 82.3% | viability, T/C [7] 54.2% | viability, T/C [8] 11.8% | viability, T/C (second compound 0.316 µM, first compound 0.000316 µM) 87.2% | viability, T/C (second compound 0.316 µM, first compound 0.001 µM) 82.8% | viability, T/C (second compound 0.316 µM, first compound 0.00316 µM) 87.6% | viability, T/C (second compound 0.316 µM, first compound 0.01 µM) 84.9% | viability, T/C [9] 49.6% | viability, T/C [10] 12.7% | viability, T/C (second compound 1 µM, first compound 0.000316 µM) 105% | viability, T/C (second compound 1 µM, first compound 0.001 µM) 80.8% | viability, T/C (second compound 1 µM, first compound 0.00316 µM) 75.2% | viability, T/C (second compound 1 µM, first compound 0.01 µM) 70.8% | viability, T/C [11] 46.6% | viability, T/C [12] 12.3%
41.8 nM: IC50 (second compound 0.01 µM)
36.7 nM: IC50 (second compound 0.1 µM)

CC1(C)CCC(CN2CCN(c3ccc(C(=O)NS(=O)(=O)c4ccc(NCC5CCOCC5)c([N+](=O)[O-])c4)c(Oc4cnc5[nH]ccc5c4)c3)CC2)=C(c2ccc(Cl)cc2)C1 + CC(Nc1ccc2c(c1)OCCn1cc(N3C(=O)OCC3C(F)F)nc1-2)C(N)=O
5030 nM: IC50 (second compound 0.01 µM)
4860 nM: IC50 (second compound 0.00316 µM)
3630 nM: IC50 (second compound 0.316 µM)
3480 nM: IC50 (second compound 1 µM)
active: viability, T/C (second compound 0.00316 µM, first compound 10 µM) 8.95% | viability, T/C (second compound 0.01 µM, first compound 10 µM) 9.38% | viability, T/C (second compound 0.0316 µM, first compound 10 µM) 9.45% | viability, T/C (second compound 0.316 µM, first compound 10 µM) 8.04% | viability, T/C (second compound 1 µM, first compound 10 µM) 9.1%
4300 nM: IC50 (second compound 0.0316 µM)
inactive: viability, T/C [1] 94.2% | viability, T/C [2] 99.9% | viability, T/C (second compound 0.00316 µM, first compound 0.316 µM) 82.1% | viability, T/C (second compound 0.00316 µM, first compound 1 µM) 91.6% | viability, T/C (second compound 0.00316 µM, first compound 3.16 µM) 74.4% | viability, T/C [3] 91.8% | viability, T/C [4] 108% | viability, T/C (second compound 0.01 µM, first compound 0.316 µM) 90.1% | viability, T/C (second compound 0.01 µM, first compound 1 µM) 108% | viability, T/C (second compound 0.01 µM, first compound 3.16 µM) 77.5% | viability, T/C [5] 97.6% | viability, T/C [6] 89.3% | viability, T/C (second compound 0.0316 µM, first compound 0.316 µM) 71.6% | viability, T/C (second compound 0.0316 µM, first compound 1 µM) 94.6% | viability, T/C (second compound 0.0316 µM, first compound 3.16 µM) 64.6% | viability, T/C [7] 97.9% | viability, T/C [8] 95.7% | viability, T/C (second compound 0.1 µM, first compound 0.316 µM) 83.4% | viability, T/C (second compound 0.1 µM, first compound 1 µM) 83.8% | viability, T/C (second compound 0.1 µM, first compound 3.16 µM) 67.2% | viability, T/C (second compound 0.1 µM, first compound 10 µM) 10% | viability, T/C [9] 89.6% | viability, T/C [10] 74.7% | viability, T/C (second compound 0.316 µM, first compound 0.316 µM) 96% | viability, T/C (second compound 0.316 µM, first compound 1 µM) 76.5% | viability, T/C (second compound 0.316 µM, first compound 3.16 µM) 56.2% | viability, T/C [11] 80.6% | viability, T/C [12] 79.8% | viability, T/C (second compound 1 µM, first compound 0.316 µM) 79.6% | viability, T/C (second compound 1 µM, first compound 1 µM) 90% | viability, T/C (second compound 1 µM, first compound 3.16 µM) 53.8%
4320 nM: IC50 (second compound 0.1 µM)
